Data reported in patent US7897640B2 (priority 2003, dated 2011).
Marks after values point to notes of the source that are not given here.

Columns and labels:
[1] = test system: duck hepatitis B virus (DHBV); test: pharmacotherapy test in DHBV infected ducklings, serum DHBV-DNA dot-blot; type: in vivo, Beijing ducklings
[2] = solubility; type: physicochemical
[3] = test system: AZT-resistant strain HIV-1 018c; settings: PBMC, AZT-resistant HIV-1 018c
[4] = test system: human T lymphocytes MT-4; test: cytotoxicity by MTT in MT-4 culture; settings: MT-4 culture with HIV-1 IIIB, 96 hours
[5] = test system: HIV-1 IIIB; test: HIV-1 P24 antigen inhibition in MT-4 culture; settings: MT-4, HIV-1 IIIB
Procedure: MT-4 cell suspension was counted, then 100 μl of suspension (2×10^5 cells/ml) was seeded into 96-well cell culture plate, 50 μl liquor of 2× diluted medicament or 4-5× diluted positive medicament AZT (8 concentrations) was added, respectively, and 50 μl virus suspension with proper titer was add concurrently. Each dilution was repeated in 3 wells and cell control group and virus control group were established. They were incubated at 37° C., 5% CO2 saturated humidity incubator and the cytopathy was observed everyday. On the fourth day after administration (96 hours), the supernatants were sucked out and stored at −20° C. for measuring HIV-1-P24 antigen titer. Accordingly, the inhibition effect of medicament could be calculated, and the cells were dyed with MTT to measure the cytotoxicity.
The medicated cell supernatants infected with MT-4 were diluted after being thawed. HIV-1 P24 titer was measured according to the operation procedure described in HIV-1 P24 antigen kit.
[formula] 2.2.2 Reed & Muench Method for Calculating CC50 and EC50 of Medicament in Cell Culture
[formula] 2.2.3. Calculation Method of Selection Index (SI) of HIV-1 P24 Antigen in Cell Culture SI=CC50/EC50 3.

[6] = test system: human peripheral blood mononuclear cell (PBMC); test: cytotoxicity by MTT in HIV-infected PBMC culture; settings: 96 hours
Procedure: 10 μl MTT dye (5 mg/ml) was added to each well, and then incubated at 37° C., 5% CO2 saturated humidity incubator for 4 hours. 100 μl 50% DMF-17% Triton X-100 destainer was added to each well and the mixtures were kept at 37° C. overnight. Then OD570nm values were measured at 570 nm with a luminometer to calculate the median cytotoxicity concentration of medicament (CC50).
The fresh normal human venous blood was taken and PBMC was separated using FiColl separation solution. The 1.5×10^5 cells/ml suspension prepared with the culture fluid containing PHA was seeded into the culture bottle and incubated in the incubator (37° C., 5% CO2) for 72 hours. The cells were collected with cell scrapers then were infected with the 10^−2 viral liquid of AZT-sensitive (018a) or AZT-resistant (018c) viral strain. After absorption for 2 hours, the non-absorbed viruses were washed with serum-free 1640 culture medium. The infected cells were prepared into 1×10^6 cells/ml with the culture fluid, and then were seeded into the 96-well culture board in 100 μl/well. At the same time, 100 μl liquor of 2× diluted AKJ-2 or 5× diluted positive control medicament AZT with different concentrations was added. The cell control group and virus control group were established. Four days (96 hours) after incubating under 37° C., 5% CO2, the supernatants were sucked out and stored at −20° C. to measure HIV-1-P24 antigen titer and calculate the inhibition effect of the medicament. The cells were dyed with MTT to measure the cytotoxicity.

[7] = test system: AZT-sensitive strain HIV-1 018a; test: HIV-1 P24 antigen inhibition in PBMC, AZT-sensitive strain; settings: PBMC, AZT-sensitive HIV-1 018a
[8] = test system: HIV-1 IIIB; test: HIV-1 P24 antigen inhibition in chronically infected H9 cells
Procedure: HIV-1 P24 antigen titer was measured according to the operation procedures stated in HIV-1 P24 antigen kit.
100 μl (2×10^5 cells/ml) of H9 cells suspension was seeded into 96-well cell culture plate. Then, 100 μl liquor of 2× diluted medicament or 4-5× diluted positive AZT (8 concentrations) was added. Each dilution was repeated in three wells. The cell control group was established. The cells were incubated in the incubator (37° C., 5% CO2, saturated humidity) and the cytopathy was observed everyday. Four days (96 hours) after administration, the supernatants were sucked out and stored at −20° C. to measure HIV-1-P24 antigen titer. The inhibition effect of the medicament was determined. The cells were dyed with MTT to measure the cytotoxicity.
2.2.2 Reed & Muench Method for Calculating CC50 and EC50 of Medicament in Cell Culture
Calculation Method of Selection Index (SI) of HIV-1 P24 Antigen in Cell Culture SI=CC50/EC50 3.

[9] = test system: human T lymphocytes H9 chronically infected with HIV-1 IIIB; test: cytotoxicity by MTT in H9 cells chronically infected with HIV-1 IIIB; settings: H9 cell chronically infected with HIV-1 IIIB, 96 hours

CC(C)=CC[C@H](OC(=O)C=C(C)C)C1=CC(=O)c2c(O)ccc(O)c2C1=O [AKJ, β,β-dimethyl-acryl-alkannin]
Serum DHBV-DNA OD490 value (X ± SD) ([1]; Lot I, 25 mg/kg oral bid x 10 days, P3 (third day after cessation)): 0.792 ± 0.13 | Serum DHBV-DNA level Inhibitory Rate (%) ([1]; Lot I, 25 mg/kg oral bid x 10 days, P3 vs T0): 5.43% | Serum DHBV-DNA OD490 value (X ± SD) ([1]; Lot I, 25 mg/kg oral bid x 10 days, T0 (day before administration)): 0.851 ± 0.15 | Serum DHBV-DNA OD490 value (X ± SD) ([1]; Lot I, 25 mg/kg oral bid x 10 days, T5): 0.767 ± 0.18 | Serum DHBV-DNA level Inhibitory Rate (%) ([1]; Lot I, 25 mg/kg oral bid x 10 days, T5 vs T0): 8.81% | Serum DHBV-DNA OD490 value (X ± SD) ([1]; Lot I, 25 mg/kg oral bid x 10 days, T10): 0.762 ± 0.15 | Serum DHBV-DNA level Inhibitory Rate (%) ([1]; Lot I, 25 mg/kg oral bid x 10 days, T10 vs T0): 8.73% | Serum DHBV-DNA OD490 value (X ± SD) ([1]; Lot I, 50 mg/kg oral bid x 10 days, P3 (third day after cessation)): 0.696 ± 0.05 | Serum DHBV-DNA level Inhibitory Rate (%) ([1]; Lot I, 50 mg/kg oral bid x 10 days, P3 vs T0): 32.39** % | Serum DHBV-DNA OD490 value (X ± SD) ([1]; Lot I, 50 mg/kg oral bid x 10 days, T0 (day before administration)): 1.082 ± 0.23 | Serum DHBV-DNA OD490 value (X ± SD) ([1]; Lot I, 50 mg/kg oral bid x 10 days, T5): 0.961 ± 0.23 | Serum DHBV-DNA level Inhibitory Rate (%) ([1]; Lot I, 50 mg/kg oral bid x 10 days, T5 vs T0): 9.16% | Serum DHBV-DNA OD490 value (X ± SD) ([1]; Lot I, 50 mg/kg oral bid x 10 days, T10): 0.680 ± 0.09 | Serum DHBV-DNA level Inhibitory Rate (%) ([1]; Lot I, 50 mg/kg oral bid x 10 days, T10 vs T0): 33.56** % | Serum DHBV-DNA OD490 value (X ± SD) ([1]; Lot I, 100 mg/kg oral bid x 10 days, P3 (third day after cessation)): 0.667 ± 0.22 | Serum DHBV-DNA level Inhibitory Rate (%) ([1]; Lot I, 100 mg/kg oral bid x 10 days, P3 vs T0): 44.91** % | Serum DHBV-DNA OD490 value (X ± SD) ([1]; Lot I, 100 mg/kg oral bid x 10 days, T0 (day before administration)): 1.207 ± 0.23 | Serum DHBV-DNA OD490 value (X ± SD) ([1]; Lot I, 100 mg/kg oral bid x 10 days, T5): 0.987 ± 0.26 | Serum DHBV-DNA level Inhibitory Rate (%) ([1]; Lot I, 100 mg/kg oral bid x 10 days, T5 vs T0): 17.86* % | Serum DHBV-DNA OD490 value (X ± SD) ([1]; Lot I, 100 mg/kg oral bid x 10 days, T10): 0.757 ± 0.19 | Serum DHBV-DNA level Inhibitory Rate (%) ([1]; Lot I, 100 mg/kg oral bid x 10 days, T10 vs T0): 37.09** % | Serum DHBV-DNA OD490 value (X ± SD) ([1]; Lot II, 25 mg/kg oral bid x 10 days, P3 (third day after cessation)): 1.092 ± 0.13 | Serum DHBV-DNA level Inhibitory Rate (%) ([1]; Lot II, 25 mg/kg oral bid x 10 days, P3 vs T0): −12.91% | Serum DHBV-DNA OD490 value (X ± SD) ([1]; Lot II, 25 mg/kg oral bid x 10 days, T0 (day before administration)): 1.005 ± 0.22 | Serum DHBV-DNA OD490 value (X ± SD) ([1]; Lot II, 25 mg/kg oral bid x 10 days, T5): 1.061 ± 0.08 | Serum DHBV-DNA level Inhibitory Rate (%) ([1]; Lot II, 25 mg/kg oral bid x 10 days, T5 vs T0): −8.66% | Serum DHBV-DNA OD490 value (X ± SD) ([1]; Lot II, 25 mg/kg oral bid x 10 days, T10): 0.928 ± 0.09 | Serum DHBV-DNA level Inhibitory Rate (%) ([1]; Lot II, 25 mg/kg oral bid x 10 days, T10 vs T0): 5.67% | Serum DHBV-DNA OD490 value (X ± SD) ([1]; Lot II, 50 mg/kg oral bid x 10 days, P3 (third day after cessation)): 1.140 ± 0.25 | Serum DHBV-DNA level Inhibitory Rate (%) ([1]; Lot II, 50 mg/kg oral bid x 10 days, P3 vs T0): 14.99% | Serum DHBV-DNA OD490 value (X ± SD) ([1]; Lot II, 50 mg/kg oral bid x 10 days, T0 (day before administration)): 1.375 ± 0.28 | Serum DHBV-DNA OD490 value (X ± SD) ([1]; Lot II, 50 mg/kg oral bid x 10 days, T5): 1.075 ± 0.14 | Serum DHBV-DNA level Inhibitory Rate (%) ([1]; Lot II, 50 mg/kg oral bid x 10 days, T5 vs T0): 20.22** % | Serum DHBV-DNA OD490 value (X ± SD) ([1]; Lot II, 50 mg/kg oral bid x 10 days, T10): 0.947 ± 0.13 | Serum DHBV-DNA level Inhibitory Rate (%) ([1]; Lot II, 50 mg/kg oral bid x 10 days, T10 vs T0): 27.55* % | Serum DHBV-DNA OD490 value (X ± SD) ([1]; Lot II, 100 mg/kg oral bid x 10 days, P3 (third day after cessation)): 0.875 ± 0.17 | Serum DHBV-DNA level Inhibitory Rate (%) ([1]; Lot II, 100 mg/kg oral bid x 10 days, P3 vs T0): 18.04* % | Serum DHBV-DNA OD490 value (X ± SD) ([1]; Lot II, 100 mg/kg oral bid x 10 days, T0 (day before administration)): 1.080 ± 0.21 | Serum DHBV-DNA OD490 value (X ± SD) ([1]; Lot II, 100 mg/kg oral bid x 10 days, T5): 0.872 ± 0.13 | Serum DHBV-DNA level Inhibitory Rate (%) ([1]; Lot II, 100 mg/kg oral bid x 10 days, T5 vs T0): 18.14** % | Serum DHBV-DNA OD490 value (X ± SD) ([1]; Lot II, 100 mg/kg oral bid x 10 days, T10): 0.670 ± 0.14 | Serum DHBV-DNA level Inhibitory Rate (%) ([1]; Lot II, 100 mg/kg oral bid x 10 days, T10 vs T0): 36.65** % | Serum DHBV-DNA OD490 value (X ± SD) ([1]; Lot III, 25 mg/kg oral bid x 10 days, P3 (third day after cessation)): 1.035 ± 0.21 | Serum DHBV-DNA level Inhibitory Rate (%) ([1]; Lot III, 25 mg/kg oral bid x 10 days, P3 vs T0): 16.14* % | Serum DHBV-DNA OD490 value (X ± SD) ([1]; Lot III, 25 mg/kg oral bid x 10 days, T0 (day before administration)): 1.263 ± 0.35 | Serum DHBV-DNA OD490 value (X ± SD) ([1]; Lot III, 25 mg/kg oral bid x 10 days, T5): 1.079 ± 0.23 | Serum DHBV-DNA level Inhibitory Rate (%) ([1]; Lot III, 25 mg/kg oral bid x 10 days, T5 vs T0): 11.66* % | Serum DHBV-DNA OD490 value (X ± SD) ([1]; Lot III, 25 mg/kg oral bid x 10 days, T10): 1.076 ± 0.16 | Serum DHBV-DNA level Inhibitory Rate (%) ([1]; Lot III, 25 mg/kg oral bid x 10 days, T10 vs T0): 11.96* % | Serum DHBV-DNA OD490 value (X ± SD) ([1]; Lot III, 50 mg/kg oral bid x 10 days, P3 (third day after cessation)): 1.368 ± 0.11 | Serum DHBV-DNA level Inhibitory Rate (%) ([1]; Lot III, 50 mg/kg oral bid x 10 days, P3 vs T0): 16.59** % | Serum DHBV-DNA OD490 value (X ± SD) ([1]; Lot III, 50 mg/kg oral bid x 10 days, T0 (day before administration)): 1.649 ± 0.13 | Serum DHBV-DNA OD490 value (X ± SD) ([1]; Lot III, 50 mg/kg oral bid x 10 days, T5): 1.459 ± 0.28 | Serum DHBV-DNA level Inhibitory Rate (%) ([1]; Lot III, 50 mg/kg oral bid x 10 days, T5 vs T0): 11.03* % | Serum DHBV-DNA OD490 value (X ± SD) ([1]; Lot III, 50 mg/kg oral bid x 10 days, T10): 1.411 ± 0.31 | Serum DHBV-DNA level Inhibitory Rate (%) ([1]; Lot III, 50 mg/kg oral bid x 10 days, T10 vs T0): 13.00% | Serum DHBV-DNA OD490 value (X ± SD) ([1]; Lot III, 100 mg/kg oral bid x 10 days, P3 (third day after cessation)): 1.146 ± 0.56 | Serum DHBV-DNA level Inhibitory Rate (%) ([1]; Lot III, 100 mg/kg oral bid x 10 days, P3 vs T0): 18.34% | Serum DHBV-DNA OD490 value (X ± SD) ([1]; Lot III, 100 mg/kg oral bid x 10 days, T0 (day before administration)): 1.474 ± 0.38 | Serum DHBV-DNA OD490 value (X ± SD) ([1]; Lot III, 100 mg/kg oral bid x 10 days, T5): 1.351 ± 0.30 | Serum DHBV-DNA level Inhibitory Rate (%) ([1]; Lot III, 100 mg/kg oral bid x 10 days, T5 vs T0): 2.76% | Serum DHBV-DNA OD490 value (X ± SD) ([1]; Lot III, 100 mg/kg oral bid x 10 days, T10): 1.046 ± 0.42 | Serum DHBV-DNA level Inhibitory Rate (%) ([1]; Lot III, 100 mg/kg oral bid x 10 days, T10 vs T0): 28.41** % | solubility in DMSO ([2]; DMSO): soluble | solubility in water ([2]; water): insoluble | Selection index (CC50/EC50) [3]: 5.75 ± 0.67 | Median effective concentration (EC50), HIV-1 P24 antigen ([3]; 96 hours): 0.97 ± 0.13 µg/mL | Median cytotoxicity concentration (CC50) [4]: 0.31 ± 0.04 µg/mL | Selection index (CC50/EC50) [5]: 4.49 ± 0.94 | Median effective concentration (EC50), HIV-1 P24 antigen ([5]; 96 hours): 0.07 ± 0.01 µg/mL | Median cytotoxicity concentration (CC50) ([6]; PBMC infected with AZT-resistant HIV-1 018c): 5.55 ± 0.136 µg/mL | Median cytotoxicity concentration (CC50) ([6]; PBMC infected with AZT-sensitive HIV-1 018a): 5.66 ± 0.28 µg/mL | Selection index (CC50/EC50) [7]: 5.12 ± 0.33 | Median effective concentration (EC50), HIV-1 P24 antigen ([7]; 96 hours): 1.11 ± 0.11 µg/mL | Median effective concentration (EC50), HIV-1 P24 antigen ([8]; H9 cell chronically infected with HIV-1 IIIB, 96 hours): >0.25 ± 0 µg/mL | inhibition effect on HIV-1 IIIB chronically-infected H9 cells ([8]; two lots of tests): no inhibition effect | Median cytotoxicity concentration (CC50) [9]: 1.915 ± 0.09 µg/mL
